Legend:
HL60 = assay: Combination with ATO in AML cell lines, viability and Bliss synergy; format: cell-based; conditions: upper maps (HL60), 48 h
Description: (§1) First, 2 × 10^5 (72 h assays in cell lines (Supplementary File S1)), 3 × 10^5 (48 h assays in cell lines) or 7.5 × 10^5 (primary AML, healthy donor buffy coats) cells per mL were cultured in 96-well plates, and all drugs were added at the indicated concentrations. In α-tocopherol experiments, cells were treated with growing concentrations of α-tocopherol and EDK drugs for 48 h. In the NAC and 3MA experiments, treatment was simultaneous with EDK compounds. In glucose deprivation experiments, cells were cultivated with a standard medium (glucose high, 2 g/L), a standard medium without glucose, or a standard medium with galactose (2 g/L) and without glucose. Cell viability was measured via 7-AAD (eBioscience) exclusion and Hoechst33342 (Sigma-Aldrich, St. Louis, MO, USA) positivity staining via flow cytometry, and the cell count was obtained through volume. In the experiments with the primary cells, analyses were performed inside the blast population as detected via blast gates (CD45^low SSC^int). For solid tumor cell lines, viability was analyzed using CellTiter-Glo® Luminescent Cell Viability Assay (Promega).
(§2) Synergy was calculated using SynergyFinder 2.0 with the Bliss reference model.

MonoMac1 = assay: as above; format: cell-based; conditions: lower maps (MonoMac1), 48 h
Description: as §1, §2

A549 = assay: Pancancer cell line panel viability; format: cell-based; conditions: 10 µM, 48 h
Description: as §1
(§3) AML cell lines and cell cultures
(§4) Cell lines HL-60 (ACC-3), KG-1 (ACC-14), MonoMac-1 (ACC-252), Kasumi-1 […]
(§5) obtained from DSMZ. Cell lines THP-1 (TIB-202TM), MCF-7 (HTB-22™), MDA- […]
(§6) 3216™) and HS-5 (CRL-11882™) were obtained from ATCC. HBL-2 cell line was kindly supplied by Dr. Pérez-Galán (IDIBAPS, Barcelona, Spain). SKM-1 and U937 were kindly provided by Dr. Marcus Buschbeck (IJC, Badalona, Spain). All cell lines were cultured in the conditions indicated by the providers, and were tested for mycoplasma on a monthly basis.
(§7) All drugs were resuspended in H2O (Thermo Fischer Scientific), DMSO (Sigma-Aldrich) or ethanol (VWR) according to manufacturer’s specifications. - tocopherol, 3-methyladenine (3MA), arsenic trioxide (ATO) and N-acetyl-L-cysteine (NAC) were purchased from Sigma Aldrich. Chloroquine diphosphate was purchased from Merck. Etoposide and ionomycin were purchased from […]
(§8) (1 picture or pasted object on this page, not shown here)

ACHN = assay: Pancancer cell line panel viability; format: cell-based; conditions: 10 µM, 48 h
Description: as §1, §3, §4, §5, §6, §7, §8

CAKI = assay: Pancancer cell line panel viability; format: cell-based; conditions: 10 µM, 48 h
Description: as §1, §3, §4, §5, §6, §7, §8

DU-145 = assay: Pancancer cell line panel viability; format: cell-based; conditions: 10 µM, 48 h
Description: as §1, §3, §4, §5, §6, §7, §8

GRANTA = assay: Pancancer cell line panel viability; format: cell-based; conditions: 10 µM, 48 h
Description: as §1, §3, §4, §5, §6, §7, §8

HBL2 = assay: Pancancer cell line panel viability; format: cell-based; conditions: 10 µM, 48 h
Description: as §1, §3, §4, §5, §6, §7, §8

HCT-116 = assay: Pancancer cell line panel viability; format: cell-based; conditions: 10 µM, 48 h
Description: as §1, §3, §4, §5, §6, §7, §8

HCT-15 = assay: Pancancer cell line panel viability; format: cell-based; conditions: 10 µM, 48 h
Description: as §1, §3, §4, §5, §6, §7, §8

HOP62 = assay: Pancancer cell line panel viability; format: cell-based; conditions: 10 µM, 48 h
Description: as §1, §3, §4, §5, §6, §7, §8

JJN3 = assay: Pancancer cell line panel viability; format: cell-based; conditions: 10 µM, 48 h
Description: as §1, §3, §4, §5, §6, §7, §8

Jurkat = assay: Pancancer cell line panel viability; format: cell-based; conditions: 10 µM, 48 h
Description: as §1, §3, §4, §5, §6, §7, §8

K562 = assay: Pancancer cell line panel viability; format: cell-based; conditions: 10 µM, 48 h
Description: as §1, §3, §4, §5, §6, §7, §8

M14 = assay: Pancancer cell line panel viability; format: cell-based; conditions: 10 µM, 48 h
Description: as §1, §3, §4, §5, §6, §7, §8

MCF-7 = assay: Pancancer cell line panel viability; format: cell-based; conditions: 10 µM, 48 h
Description: as §1, §3, §4, §5, §6, §7, §8

MDA-MB-231 = assay: Pancancer cell line panel viability; format: cell-based; conditions: 10 µM, 48 h
Description: as §1, §3, §4, §5, §6, §7, §8

MDA-MB-435 = assay: Pancancer cell line panel viability; format: cell-based; conditions: 10 µM, 48 h
Description: as §1, §3, §4, §5, §6, §7, §8

MOLT4 = assay: Pancancer cell line panel viability; format: cell-based; conditions: 10 µM, 48 h
Description: as §1, §3, §4, §5, §6, §7, §8

NCI = assay: Pancancer cell line panel viability; format: cell-based; conditions: 10 µM, 48 h
Description: as §1, §3, §4, §5, §6, §7, §8

OVCAR = assay: Pancancer cell line panel viability; format: cell-based; conditions: 10 µM, 48 h
Description: as §1, §3, §4, §5, §6, §7, §8

PC-3 = assay: Pancancer cell line panel viability; format: cell-based; conditions: 10 µM, 48 h
Description: as §1, §3, §4, §5, §6, §7, §8

RAMOS = assay: Pancancer cell line panel viability; format: cell-based; conditions: 10 µM, 48 h
Description: as §1, §3, §4, §5, §6, §7, §8

SR = assay: Pancancer cell line panel viability; format: cell-based; conditions: 10 µM, 48 h
Description: as §1, §3, §4, §5, §6, §7, §8

U266 = assay: Pancancer cell line panel viability; format: cell-based; conditions: 10 µM, 48 h
Description: as §1, §3, §4, §5, §6, §7, §8

[1] = test system: intracellular calcium in HL60 cells; assay: Calcium mobilization assay (Fura2 probe); format: cell-based; conditions: 10 µM EDK-87/EDK-88, 50 µM chloroquine
Description: 1,000 cells of AML cell lines or 50,000 primary cells (both AML and lin-depleted UCB) were treated at the indicated concentration for 18 h, and cultured in 1 mL of MethoCult H4034 Optimum (StemCell Technologies, Vancouver, BC, Canada).
Colonies were screened based on morphology and cellularity at day 7 (cell lines) […]
Calcium mobilization assay
1 x 10^6 cells per mL were loaded for 30’ at 37 °C with the Fura-2-AM probe (Thermo Fisher) at a final 2 µM concentration in pre-warmed calcium- and magnesium-free Hanks BSA solution. Cells were then washed and resuspended in Hanks BSA solution with calcium and magnesium at 3 x 10^5 cells per mL. In parallel, 50µL of drugs in Hanks BSA solution with calcium and magnesium were added to 96-well black wall clear bottom plates and background fluorescence […]
Cells were then added to the plate
(50µL/well) and fluorescence was acquired at indicated timepoints using a Synergy HT Multi-Detection Microplate Reader (BioTek). For the analysis, all values were subtracted their corresponding background fluorescence, and the ratio 340/380 was calculated. Finally, ratios were normalized to vehicle-treated […]
Semi-Quantitative Real Time PCR

[2] = ADME-Tox: clearance / metabolic rate; format: in vitro ADME
Description: All ADMET studies were performed in Eurofins Discovery Services (CEREP laboratories, Celle-Lévescault France). The pharmacokinetic studies were performed in Draconis Pharma SL (Barcelona, Spain) in CD-1 mice treated with 30 mg/kg EDK87 or EDK88 via SC or OG. Blood was collected by cardiac puncture at 0.5, 1, 2, 4, or 24 h.

CN1CCC(=C2c3ccccc3-c3c2sc2ccccc32)CC1 [EDK-87]
Effectivity (%Viability reduction) (HL60; EDK compound alone 1 µM): 18% | Effectivity (%Viability reduction) (HL60; EDK compound alone 3 µM): 30% | Effectivity (%Viability reduction) (HL60; EDK compound alone 10 µM): 84% | Effectivity (%Viability reduction) (MonoMac1; EDK compound alone 1 µM): 29% | Effectivity (%Viability reduction) (MonoMac1; EDK compound alone 3 µM): 33% | Effectivity (%Viability reduction) (MonoMac1; EDK compound alone 10 µM): 61% | # Live cells refer to control (A549): 74% | # Live cells refer to control (ACHN): 70% | # Live cells refer to control (CAKI): 58% | # Live cells refer to control (DU-145): 57% | # Live cells refer to control (GRANTA): 35% | # Live cells refer to control (HBL2): 58% | # Live cells refer to control (HCT-116): 64% | # Live cells refer to control (HCT-15): 52% | # Live cells refer to control (HOP62): 44% | # Live cells refer to control (JJN3): 55% | # Live cells refer to control (Jurkat): 51% | # Live cells refer to control (K562): 87% | # Live cells refer to control (M14): 21% | # Live cells refer to control (MCF-7): 32% | # Live cells refer to control (MDA-MB-231): 47% | # Live cells refer to control (MDA-MB-435): 11% | # Live cells refer to control (MOLT4): 25% | # Live cells refer to control (NCI): 45% | # Live cells refer to control (OVCAR): 59% | # Live cells refer to control (PC-3): 65% | # Live cells refer to control (RAMOS): 74% | # Live cells refer to control (SR): 42% | # Live cells refer to control (U266): 70% | intracellular calcium mobilization [1]: few changes in calcium release | metabolic rate as compared to EDK-88 [2]: higher

From article PMC10047683, “A Novel Family of Lysosomotropic Tetracyclic Compounds for Treating Leukemia” (Cancers, 2023)
